The values that follow come from patent US8895596B2, “Cyclic benzimidazole derivatives useful as anti-diabetic agents” (Merck Sharp & Dohme Corp, priority 2010, dated 2014).

Experiment [1] has as its target recombinant human AMPK complex 1 (containing α1β1γ1) (Homo sapiens, UniProt Q13131+Q9Y478). In words: in vitro AMPK activation assay (AMPKSAMSF). The format is biochemical. The conditions noted are these: recombinant human AMPK complex 1 (α1β1γ1); for EC50: table. The protocol: AMPKSAMSF (in vitro AMPK Activation Assay)
The recombinant human AMPK complex 1 (containing α1β1γ1) was obtained from baculovirus expression system. Recombinant viruses were generated by cotransfection of AMPK/pBacPak9 clones with Baculogold baculovirus DNA (Pharmingen) in spodoptera frugiperda 21 cells according to the manufacturer's instructions. Each round of virus amplification was performed for 5 days in Grace's medium containing 10% serum. Virus that had been subjected to three rounds of amplification was used for all protein production procedures. To express the AMPK complex, sf21 cells were adapted to serum free medium (SF900 II, Invitrogen) by sequential dilution from serum containing stocks into SF900II medium and maintained in shaker flasks at 90 rpm at 27° C. The recombinant AMPK enzyme complex was produced by triple infection, one recombinant virus for each of the subunits, in sf21 cells under serum free conditions. Cells were infected in log phase, 1×10^6 cells/ml, at a multiplicity of infection […] were harvested by centrifugation at 10,000×g for 15 minutes after 72 hours of infection with viruses. The insect cell pellet from 2 liters of culture was resuspended in 50 ml lysis buffer (20 mM Tris-HCl, 50 mM NaCl, 50 mM NaF, 30 mM Na PPi, 0.25 M sucrose, 10 mM ZnCl2, 2 mM DTT, 0.4 mg/ml digitonin) and subjected to two cycles of freeze-thaw lysis in a dry-ice ethanol bath. Insoluble material was removed by centrifugation at 10,000×g and the supernatant was fractionated with use of polyethylene glycol (PEG). The protein fraction precipitating between 2.5 and 6% PEG was used for further purification using a Blue-Sepharose step (Zhou et al, J. Clin. Invest. 108, 1167-1174, 2001).
The in vitro AMPK activation assay is performed in a volume of 30 μl in a 384-well plate. Enzyme reactions were assembled in the microtiter plate by adding 15 μl of 2× enzyme in assay buffer (20 mM HEPES, pH 7.3, 5 mM MgCl2, 3 mM DTT, 0.01% Brij 35 and CamK Kinase, to activate AMPK) to wells which contained either DMSO or compound. The reaction was initiated with the addition of […] substrate mixture containing 200 μM ATP, and 3.0 μM fluorescently labeled SAMS (5-FAM-HMRSAMSGLHLVKRR-COOH) in assay buffer. After 45-minute incubation at 25° C., the reaction was stopped by the addition of 70 μl stop buffer (100 mM HEPES, pH 7.3, 40 mM EDTA, 0.015% Brij 35). Phosphorylated 5-FAM SAMS product is assessed using a Caliper EZ Reader LabChip microfluidics reader. Product conversion is determined by calculating the peak heights of the substrate and product and reporting the product/(product+substrate) peak ratio. The 10-point titration data were expressed as maximum AMP activation. The results were plotted using 4 parameter fit and the inflection point reflecting 50% of the maximum activation was reported as the EC50.

The next experiment has as its system ob/ob and db/db mice. Conditions: following 8 weeks of administration; cited from earlier work.

Chain of recombinant human AMPK complex 1 (containing α1β1γ1) (Q13131 whole entry): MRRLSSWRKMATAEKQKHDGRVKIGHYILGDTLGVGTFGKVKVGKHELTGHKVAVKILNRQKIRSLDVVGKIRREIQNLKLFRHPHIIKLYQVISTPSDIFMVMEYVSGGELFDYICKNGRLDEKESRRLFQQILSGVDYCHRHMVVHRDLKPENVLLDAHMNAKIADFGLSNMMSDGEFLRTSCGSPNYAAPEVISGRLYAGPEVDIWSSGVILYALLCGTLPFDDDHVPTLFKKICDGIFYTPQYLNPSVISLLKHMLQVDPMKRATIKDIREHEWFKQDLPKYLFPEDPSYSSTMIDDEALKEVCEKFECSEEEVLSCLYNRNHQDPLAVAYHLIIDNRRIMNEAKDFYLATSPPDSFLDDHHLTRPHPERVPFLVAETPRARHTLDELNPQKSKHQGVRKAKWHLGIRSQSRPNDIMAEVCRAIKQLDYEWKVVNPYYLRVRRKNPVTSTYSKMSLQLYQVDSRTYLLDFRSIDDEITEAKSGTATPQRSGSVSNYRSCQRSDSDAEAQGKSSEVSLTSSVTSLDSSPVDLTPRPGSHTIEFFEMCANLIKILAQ
Chain of recombinant human AMPK complex 1 (containing α1β1γ1) (Q9Y478 whole entry): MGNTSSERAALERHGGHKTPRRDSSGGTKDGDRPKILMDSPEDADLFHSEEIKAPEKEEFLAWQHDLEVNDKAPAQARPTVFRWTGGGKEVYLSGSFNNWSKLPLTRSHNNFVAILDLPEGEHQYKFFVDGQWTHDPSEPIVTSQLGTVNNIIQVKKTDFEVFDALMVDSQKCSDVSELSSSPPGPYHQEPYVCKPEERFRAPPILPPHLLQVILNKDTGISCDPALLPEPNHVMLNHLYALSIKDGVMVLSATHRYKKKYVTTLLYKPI
Chain of recombinant human AMPK complex 1 (containing α1β1γ1) (P54619 whole entry partner): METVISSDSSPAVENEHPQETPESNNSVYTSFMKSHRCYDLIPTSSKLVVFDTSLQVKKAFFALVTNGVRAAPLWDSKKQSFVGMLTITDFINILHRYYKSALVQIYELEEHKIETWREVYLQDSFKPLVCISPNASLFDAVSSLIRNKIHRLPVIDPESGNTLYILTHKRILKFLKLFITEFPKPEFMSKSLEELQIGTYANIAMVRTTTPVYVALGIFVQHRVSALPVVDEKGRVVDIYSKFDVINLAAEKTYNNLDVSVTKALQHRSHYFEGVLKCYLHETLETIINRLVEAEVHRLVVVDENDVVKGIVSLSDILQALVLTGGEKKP

On to `O=C(O)C1CCC(Oc2nc3c(F)c(-c4ccc5c(ccn5C5CC5)c4)c(F)cc3[nH]2)CC1` (stereo not drawn) [Example 21, 4-{[5-(1-Cyclopropyl-1H-indol-5-yl)-4,6-difluoro-1H-benzimidazol-2-yl]oxy}cyclohexanecarboxylic acid], for which, in experiment [1], the “% Maximum AMP Activation of human AMPK Complex 1” value (shortened to “% Maximum AMP Activation”) is reported as 504% and the EC50 amounted to 4 nM.
For `O=C(O)C1CCC(Oc2nc3c(F)c(-c4ccc(-c5ccccc5)cc4)c(F)cc3[nH]2)CC1` (stereo not drawn) [Example 15, 4-{[5-(biphenyl-4-yl)-4,6-difluoro-1H-benzimidazol-2-yl]oxy}-cyclohexane carboxylic acid], in that order: 653% and 10 nM.
For `O=C(O)C1CCCC(Oc2nc3c(F)c(-c4ccc(-c5ccccc5)cc4)c(F)cc3[nH]2)C1` (stereo not drawn) [Example 16, 3-{[5-(biphenyl-4-yl)-4,6-difluoro-1H-benzimidazol-2-yl]oxy}cyclohexanecarboxylic acid], in that order: 617% and 6 nM.
For the compound `NC(=O)c1ncn([C@@H]2O[C@H](CO)[C@@H](O)[C@H]2O)c1N` [AICAR], in the experiment on ob/ob and db/db mice, the blood glucose reduction was 35%.
Regarding `O=C(O)C1CC(Oc2nc3c(F)c(-c4ccc(-c5ccccc5)cc4)c(F)cc3[nH]2)C1` (stereo not drawn) [Example 18, 3-{[5-(biphenyl-4-yl)-4,6-difluoro-1H-benzimidazol-2-yl]oxy}cyclobutanecarboxylic acid], in experiment [1], the “% Maximum AMP Activation” value came to 538% and the EC50 came out at 14 nM.
For `O=C(O)C1CC1COc1nc2c(F)c(-c3ccc(-c4ccccc4)cc3)c(F)cc2[nH]1` (stereo not drawn) [Example 19, 2-({[5-(biphenyl-4-yl)-4,6-difluoro-1H-benzimidazol-2-yl]oxy}methyl)cyclopropane-carboxylic acid], in that order: 631% and 17 nM.
Taken in the same sequence, the figures for `O=C(O)C1CCC(Oc2nc3c(F)c(-c4ccc(-c5ccc(C(=O)N6CCC(O)CC6)cc5)cc4)c(F)cc3[nH]2)CC1` (single isomer, unassigned) [Example 20, 4-[(4,6-difluoro-5-{4′-[(4-hydroxypiperidin-1-yl)carbonyl]biphenyl-4-yl}-1H-benzimidazol-2-yl)oxy]cyclohexanecarboxylic acid] were 642% and 10 nM.
In the case of `O=C(O)C1CCC(Oc2nc3c(F)c(-c4ccc(-c5ccccc5)cc4)c(F)cc3[nH]2)C1` (stereo not drawn) [Example 17, 3-{[5-(biphenyl-4-yl)-4,6-difluoro-1H-benzimidazol-2-yl]oxy}cyclopentanecarboxylic acid], in experiment [1], the “% Maximum AMP Activation” value is 593% and the EC50 amounted to 13 nM.

In general, EC50 refers to the concentration that produces a half-maximal response.
